Test system: HK2, NRK52E, NRK49F cell lines
Experiment: RT-qPCR analysis of kidney cell lines treated with TGFβ1
Format: cell-based, human, rat
Conditions: TGFβ1 10 ng/ml, FIG. 21
Experimental: FIG. 21A-FIG. 21C. Activation of TGFβ1 signaling pathway elevated the expression of fibrotic related proteins in 3 kidney cell lines. (FIG. 21 FIG. 21A) Human epithelial (HK2), (FIG. 21 B) rat epithelial (NRK52E), (FIG. 21C) rat fibroblast (NRK49F) cell lines were treated with TGFβ1 (10 ng/ml) or TGFβ1 (10 ng/ml) plus LY2109761 (2.5 μM) for indicated times in hours.
Activation of TGFβ1 signaling pathway elevated the expression of fibrotic related proteins in 3 kidney cell lines. Human epithelial (HK2), rat epithelial (NRK52E), rat fibroblast (NRK49F) cell lines were treated with TGFβ1 (10 ng/ml) or TGFβ1 (10 ng/ml) plus LY2109761 (2.5 μM) for times indicated in hours as shown in FIG. 21 A-C.

## TGFβ1: TGFβ1 (10 ng/ml) used to activate the TGFβ1 signaling pathway in kidney cell lines
HK2, NRK52E, NRK49F
  expression of CD63 and its known interactor TIMP1: not increased
Human epithelial (HK2), rat epithelial (NRK52E), rat fibroblast (NRK49F)
  expression of fibrotic related proteins: elevated

Reference: patent US20240110183A1, “ANTIFIBROTIC AND ANTITUMOR ACTIVITY OF CD63 BLOCKADE” (The Board of Trustees of the Leland Stanford Junior …, priority 2020, published 2024)
